The record followed here is ChEMBL document CHEMBL1121977, “alpha 2 adrenoceptors: classification, localization, mechanisms, and targets for drugs” (J Med Chem, 1982).

The target of the assay is T1, Adrenergic receptor alpha-2 (Rattus norvegicus, UniProt P22086+P19328+P22909).
T1 sequence (P22086 whole entry): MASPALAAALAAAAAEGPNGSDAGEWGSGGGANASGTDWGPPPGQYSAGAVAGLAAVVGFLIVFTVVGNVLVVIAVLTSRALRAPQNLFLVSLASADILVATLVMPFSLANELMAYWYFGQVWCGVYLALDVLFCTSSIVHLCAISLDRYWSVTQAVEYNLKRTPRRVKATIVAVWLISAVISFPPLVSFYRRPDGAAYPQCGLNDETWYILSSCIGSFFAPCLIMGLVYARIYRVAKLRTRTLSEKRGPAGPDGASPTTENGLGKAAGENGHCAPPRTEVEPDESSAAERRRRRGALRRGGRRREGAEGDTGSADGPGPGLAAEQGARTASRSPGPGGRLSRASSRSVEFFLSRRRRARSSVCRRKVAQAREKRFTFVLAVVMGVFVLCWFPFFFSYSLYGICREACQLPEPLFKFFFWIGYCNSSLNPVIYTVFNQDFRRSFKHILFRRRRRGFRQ
T1 sequence (P19328 whole entry): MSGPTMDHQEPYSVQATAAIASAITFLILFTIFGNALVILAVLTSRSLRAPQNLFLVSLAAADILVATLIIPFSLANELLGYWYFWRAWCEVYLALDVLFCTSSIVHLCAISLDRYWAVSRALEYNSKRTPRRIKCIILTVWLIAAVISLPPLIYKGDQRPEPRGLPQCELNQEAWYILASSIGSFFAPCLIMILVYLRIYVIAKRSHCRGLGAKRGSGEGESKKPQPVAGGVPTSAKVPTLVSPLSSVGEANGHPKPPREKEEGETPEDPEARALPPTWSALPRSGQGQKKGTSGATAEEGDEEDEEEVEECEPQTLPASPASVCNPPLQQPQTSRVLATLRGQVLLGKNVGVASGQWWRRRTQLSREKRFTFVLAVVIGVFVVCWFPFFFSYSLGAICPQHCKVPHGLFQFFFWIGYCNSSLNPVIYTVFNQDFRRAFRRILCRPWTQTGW
T1 sequence (P22909 whole entry): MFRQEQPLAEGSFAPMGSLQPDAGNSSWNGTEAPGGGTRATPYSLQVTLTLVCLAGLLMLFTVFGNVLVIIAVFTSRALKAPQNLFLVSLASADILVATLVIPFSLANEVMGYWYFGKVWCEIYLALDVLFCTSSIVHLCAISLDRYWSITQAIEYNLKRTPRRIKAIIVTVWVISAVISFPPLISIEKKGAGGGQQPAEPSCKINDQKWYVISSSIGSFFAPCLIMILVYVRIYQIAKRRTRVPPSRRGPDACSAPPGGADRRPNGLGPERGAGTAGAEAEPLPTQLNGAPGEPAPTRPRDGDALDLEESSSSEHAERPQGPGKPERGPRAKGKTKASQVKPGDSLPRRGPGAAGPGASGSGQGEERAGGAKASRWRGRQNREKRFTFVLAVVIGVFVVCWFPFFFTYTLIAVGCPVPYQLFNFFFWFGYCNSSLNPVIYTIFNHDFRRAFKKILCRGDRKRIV
Description: Displacement of [3H]clonidine from Alpha-2 adrenergic receptor of rat brain membranes. It is filed as cell membranes, Membrane. Background: In a radioligand displacement assay an active substance lowers the binding of a labelled ligand.

A word on the Ki: it is the equilibrium dissociation constant of an inhibitor or competing ligand from its target. The low end stands for tighter binding, the high end for weaker binding. In the case of `COc1cccc(OC)c1OCCNCC1COc2ccccc2O1` (centres undefined), the Ki came out at 0.2 µM.

Take `c1cc2c(c(NC3=NCCN3)c1)CCCC2` [TRAMAZOLINE]: the inhibition constant (Ki) worked out at 0.0042 µM. Against the preceding compound, the Ki is about 48-fold lower. In the case of `c1ccc(CC2=NCCN2)cc1` [TOLAZOLINE], the Ki stood at 0.18 µM. In turn, `C[C@H](N)[C@H](O)c1ccc(O)c(O)c1` [LEVONORDEFRIN] yielded a Ki of 0.0077 µM.
